# Reference: ChEMBL document CHEMBL3352775, “Identification of substituted 3-hydroxy-2-mercaptocyclohex-2-enones as potent inhibitors of human lactate dehydrogenase” (Bioorg Med Chem Lett, 2014)
# Target: T1, L-lactate dehydrogenase A chain (Homo sapiens, UniProt P00338)
# Assay: Inhibition of human recombinant carboxy-terminal His-tagged LDHA by SPR assay
row,SMILES,Kd [µM]
1,O=C1CC(c2ccc(Cl)cc2)CC(O)=C1Sc1ccccc1Cl (stereo not drawn),27
2,O=C1CC(c2cccc(Cl)c2)CC(O)=C1Sc1ccccc1Cl (stereo not drawn),7.1

# Target: T1, L-lactate dehydrogenase A chain
# Assay: Inhibition of human recombinant carboxy-terminal His-tagged LDHA by UV endpoint assay
row,SMILES,IC50 [µM]
1,O=C1CC(c2ccccc2)CC(O)=C1Sc1ccccc1 (stereo not drawn),> 100
2,O=C1CC(c2ccccc2)CC(O)=C1Sc1nc2ccccc2o1 (stereo not drawn),> 100
3,Cc1cccc(SC2=C(O)CC(c3ccccc3)CC2=O)c1 (stereo not drawn),> 100
4,NC(=O)c1cccc(SC2=C(O)CC(c3ccccc3)CC2=O)c1 (stereo not drawn),> 100
5,Cc1cc(C)nc(SC2=C(O)CC(c3ccccc3)CC2=O)n1 (stereo not drawn),> 100
6,O=C1CC(c2ccccc2)CC(O)=C1Sc1cccc(OC(F)(F)F)c1 (stereo not drawn),> 100
7,NC(=O)c1ccccc1SC1=C(O)CC(c2ccccc2)CC1=O (stereo not drawn),> 100
8,Cc1ccccc1SC1=C(O)CC(c2ccccc2)CC1=O (stereo not drawn),> 100
9,O=C1CC(c2ccccc2)CC(O)=C1SCc1ccc(F)cc1 (stereo not drawn),> 100
10,O=C1CC(c2ccccc2)CC(O)=C1SCc1ccccc1 (stereo not drawn),> 100
11,O=C1CC(c2ccccc2)CC(O)=C1Sc1nc(O)cc(C(F)(F)F)n1 (stereo not drawn),> 100
12,O=C1CC(c2ccccc2)CC(O)=C1Sc1cccc(Br)c1 (stereo not drawn),> 100
13,Cc1cc(C)c(SC2=C(O)CC(c3ccccc3)CC2=O)nc1C#N (stereo not drawn),> 100
14,NS(=O)(=O)c1cccc(SC2=C(O)CC(c3ccccc3)CC2=O)c1 (stereo not drawn),> 100
15,O=C1CC(c2ccccc2)CC(O)=C1Sc1cccc(F)c1 (stereo not drawn),> 100
16,O=C1CC(c2ccccc2)CC(O)=C1Sc1nc2ccc(Cl)cc2[nH]1 (stereo not drawn),> 100
17,O=C1CC(c2ccccc2)CC(O)=C1Sc1cccc(Cl)c1F (stereo not drawn),> 100
18,O=C1CC(c2ccccc2)CC(O)=C1Sc1ncccn1 (stereo not drawn),> 100
19,O=C1CC(c2ccccc2)CC(O)=C1Sc1cc(Cl)cc(Cl)c1 (stereo not drawn),> 100
20,Cc1ccccc1CSC1=C(O)CC(c2ccccc2)CC1=O (stereo not drawn),> 100
21,O=C1CC(c2ccccc2)CC(O)=C1Sc1ccc(O)cc1 (stereo not drawn),> 100
22,O=C1CC(c2ccccc2)CC(O)=C1Sc1c(Cl)cccc1Cl (stereo not drawn),> 100
23,COc1cccc(SC2=C(O)CC(c3ccccc3)CC2=O)c1 (stereo not drawn),> 100

row,SMILES,IC50 [µM]
1,O=C1CC(c2ccccc2)CC(O)=C1Sc1nc2ccccc2s1 (stereo not drawn),> 100
2,Cc1cccc(C)c1SC1=C(O)CC(c2ccccc2)CC1=O (stereo not drawn),> 100
3,O=C1CC(c2ccccc2)CC(O)=C1Sc1cccc(Cl)c1 (stereo not drawn),> 100
4,Nc1ccc(SC2=C(O)CC(c3ccccc3)CC2=O)cc1 (stereo not drawn),> 100
5,CSc1nnc(SC2=C(O)CC(c3ccccc3)CC2=O)s1 (stereo not drawn),> 100
6,Cc1ccc(SC2=C(O)CC(c3ccccc3)CC2=O)c(C)c1 (stereo not drawn),> 100
7,O=C1CC(c2ccccc2)CC(O)=C1Sc1ncc[nH]1 (stereo not drawn),> 100
8,COc1ccc(SC2=C(O)CC(c3ccccc3)CC2=O)cc1 (stereo not drawn),> 100
9,O=C1CC(c2ccccc2)CC(O)=C1SC1CCCCC1 (stereo not drawn),> 100
10,O=C1CC(c2ccccc2)CC(O)=C1Sc1ccc(Cl)cc1 (stereo not drawn),> 100
11,O=C1CC(c2ccccc2)CC(O)=C1Sc1cccc2ccccc12 (stereo not drawn),> 100
12,Cc1csc(SC2=C(O)CC(c3ccccc3)CC2=O)n1 (stereo not drawn),> 100
13,COC(=O)CCSC1=C(O)CC(c2ccccc2)CC1=O (stereo not drawn),> 100
14,Nc1cc(N)nc(SC2=C(O)CC(c3ccccc3)CC2=O)n1 (stereo not drawn),> 100
15,Cc1ccc(SC2=C(O)CC(c3ccccc3)CC2=O)cc1C (stereo not drawn),> 100
16,COc1ccc(OC)c(SC2=C(O)CC(c3ccccc3)CC2=O)c1 (stereo not drawn),> 100
17,COC(=O)c1ccccc1SC1=C(O)CC(c2ccccc2)CC1=O (stereo not drawn),> 100
18,O=C1CC(c2ccccc2)CC(O)=C1Sc1nncs1 (stereo not drawn),> 100
19,CS(=O)(=O)c1ccccc1SC1=C(O)CC(c2ccccc2)CC1=O (stereo not drawn),> 100
20,COC(=O)CSC1=C(O)CC(c2ccccc2)CC1=O (stereo not drawn),> 100
21,O=C1CC(c2ccccc2)CC(O)=C1SCc1ccc(Cl)cc1Cl (stereo not drawn),> 100
22,O=C1CC(c2ccccc2)CC(O)=C1SCc1cccc(C(F)(F)F)c1 (stereo not drawn),> 100
23,Cc1cnc(SC2=C(O)CC(c3ccccc3)CC2=O)nc1O (stereo not drawn),> 100

row,SMILES,IC50 [µM]
1,Cc1nnc(SC2=C(O)CC(c3ccccc3)CC2=O)s1 (stereo not drawn),> 100
2,Nc1ccc2nc(SC3=C(O)CC(c4ccccc4)CC3=O)[nH]c2c1 (stereo not drawn),> 100
3,O=C1CC(c2ccccc2)CC(O)=C1Sc1cccs1 (stereo not drawn),> 100
4,Cc1cccc(CSC2=C(O)CC(c3ccccc3)CC2=O)c1 (stereo not drawn),> 100
5,COc1ccc(CSC2=C(O)CC(c3ccccc3)CC2=O)cc1 (stereo not drawn),> 100
6,Cc1ccc2nc(SC3=C(O)CC(c4ccccc4)CC3=O)[nH]c2c1 (stereo not drawn),> 100
7,Cc1ccnc(SC2=C(O)CC(c3ccccc3)CC2=O)n1 (stereo not drawn),> 100
8,O=C1CC(c2ccccc2)CC(O)=C1Sc1ccccc1C(=O)O (stereo not drawn),> 100
9,Cc1ccc(CSC2=C(O)CC(c3ccccc3)CC2=O)cc1 (stereo not drawn),> 100
10,O=C1CC(c2ccccc2)CC(O)=C1SCCO (stereo not drawn),> 100
11,O=C1CC(c2ccccc2)CC(O)=C1Sc1ccc(Cl)c(Cl)c1 (stereo not drawn),> 100
12,CCc1ccc(SC2=C(O)CC(c3ccccc3)CC2=O)cc1 (stereo not drawn),> 100
13,CCOC(=O)c1cnc(SC2=C(O)CC(c3ccccc3)CC2=O)nc1N (stereo not drawn),> 100
14,CC(C)C(C)SC1=C(O)CC(c2ccccc2)CC1=O (stereo not drawn),> 100
15,COc1ccccc1SC1=C(O)CC(c2ccccc2)CC1=O (stereo not drawn),> 100
16,CC(=O)Nc1ccc(SC2=C(O)CC(c3ccccc3)CC2=O)cc1 (stereo not drawn),> 100
17,O=C1CC(c2ccccc2)CC(O)=C1Sc1nccs1 (stereo not drawn),> 100
18,O=C1CC(c2ccccc2)CC(O)=C1Sc1ccc(F)cc1F (stereo not drawn),> 100
19,Cc1cc(C)cc(SC2=C(O)CC(c3ccccc3)CC2=O)c1 (stereo not drawn),> 100
20,CC(C)SC1=C(O)CC(c2ccccc2)CC1=O (stereo not drawn),> 100
21,O=C1CC(c2ccccc2)CC(O)=C1Sc1ccc2ccccc2c1 (stereo not drawn),> 100
22,Cc1cccc(Cl)c1SC1=C(O)CC(c2ccccc2)CC1=O (stereo not drawn),> 100

# The next lines start with the values.
row,IC50 [µM],SMILES
1,> 100,CCC(C)CSC1=C(O)CC(c2ccccc2)CC1=O (stereo not drawn)
2,> 100,O=C1CC(c2ccccc2)CC(O)=C1Sc1ccccn1 (stereo not drawn)
3,> 100,Nc1cccc(SC2=C(O)CC(c3ccccc3)CC2=O)c1 (stereo not drawn)
4,> 100,Cc1ccc(SC2=C(O)CC(c3ccccc3)CC2=O)cc1 (stereo not drawn)
5,> 100,Nc1nnc(SC2=C(O)CC(c3ccccc3)CC2=O)s1 (stereo not drawn)
6,> 100,COc1ccc(SC2=C(O)CC(c3ccccc3)CC2=O)cc1OC (stereo not drawn)
7,> 100,O=C1CC(c2ccccc2)CC(O)=C1Sc1ccc(C(=O)O)cc1 (stereo not drawn)
8,> 100,O=C1CC(c2ccccc2)CC(O)=C1Sc1cccc(C(F)(F)F)c1 (stereo not drawn)
9,> 100,O=C1CC(c2ccccc2)CC(O)=C1Sc1ccc(C(F)(F)F)cc1 (stereo not drawn)
10,> 100,O=C1CC(c2ccccc2)CC(O)=C1Sc1ccc(F)cc1 (stereo not drawn)
11,> 100,O=C1CC(c2ccccc2)CC(O)=C1Sc1ccccc1O (stereo not drawn)
12,> 100,CCc1ccccc1SC1=C(O)CC(c2ccccc2)CC1=O (stereo not drawn)
13,> 100,CSc1ccc(SC2=C(O)CC(c3ccccc3)CC2=O)cc1 (stereo not drawn)
14,> 100,O=C1CC(c2ccccc2)CC(O)=C1Sc1ccc(Br)cc1 (stereo not drawn)
15,18,O=C1CC(c2ccc(Cl)cc2)CC(O)=C1Sc1ccccc1Cl (stereo not drawn)
16,3.1,N#Cc1ccccc1SC1=C(O)CC(c2ccccc2Cl)CC1=O (stereo not drawn)
17,63,O=C1CC(c2ccccc2)CC(O)=C1Sc1cccc(Cl)c1Cl (stereo not drawn)

row,IC50 [µM],SMILES
1,12,O=C1CC(c2ccccc2)CC(O)=C1Sc1cc(Cl)ccc1Cl (stereo not drawn)
2,5.6,O=C1CC(c2cccc(Cl)c2)CC(O)=C1Sc1ccccc1Cl (stereo not drawn)
3,17,N#Cc1ccccc1SC1=C(O)CC(c2ccc(Cl)cc2)CC1=O (stereo not drawn)
4,3.7,O=C1CC(c2c(F)cccc2Cl)CC(O)=C1Sc1ccccc1Cl (stereo not drawn)
5,36,O=C1CC(c2ccccc2)CC(O)=C1Sc1ccccc1CO (stereo not drawn)
6,0.27,O=C1CC(c2c(Br)cccc2Br)CC(O)=C1Sc1ccccc1Cl (stereo not drawn)
7,7.4,O=C1CC(c2c(F)cccc2F)CC(O)=C1Sc1ccccc1Cl (stereo not drawn)
8,24,O=C1CC(c2ccccc2)CC(O)=C1Sc1ccc(F)cc1Cl (stereo not drawn)
9,6.8,N#Cc1ccccc1SC1=C(O)CC(c2cccc(Cl)c2)CC1=O (stereo not drawn)
10,> 66,O=C1CC(c2ccccc2)CC(O)=C1Sc1ccccc1C(F)(F)F (stereo not drawn)
11,> 64,Cc1ccc(C)c(SC2=C(O)CC(c3ccccc3)CC2=O)c1 (stereo not drawn)
12,2.1,Cc1cccc(C)c1C1CC(=O)C(Sc2ccccc2C#N)=C(O)C1 (stereo not drawn)
13,2.3,Cc1cccc(C)c1C1CC(=O)C(Sc2ccccc2Cl)=C(O)C1 (stereo not drawn)
14,53,O=C1CC(c2ccccc2)CC(O)=C1Sc1ccccc1Br (stereo not drawn)
15,0.64,N#Cc1ccccc1SC1=C(O)CC(c2c(Cl)cccc2C(F)(F)F)CC1=O (stereo not drawn)
16,53,O=C1CC(c2ccccc2)CC(O)=C1Sc1ccccc1F (stereo not drawn)
17,0.18,N#Cc1ccccc1SC1=C(O)CC(c2c(Br)cccc2Br)CC1=O (stereo not drawn)

# Target: L-lactate dehydrogenase B chain (Homo sapiens, UniProt P07195)
# Sequence (P07195 whole entry): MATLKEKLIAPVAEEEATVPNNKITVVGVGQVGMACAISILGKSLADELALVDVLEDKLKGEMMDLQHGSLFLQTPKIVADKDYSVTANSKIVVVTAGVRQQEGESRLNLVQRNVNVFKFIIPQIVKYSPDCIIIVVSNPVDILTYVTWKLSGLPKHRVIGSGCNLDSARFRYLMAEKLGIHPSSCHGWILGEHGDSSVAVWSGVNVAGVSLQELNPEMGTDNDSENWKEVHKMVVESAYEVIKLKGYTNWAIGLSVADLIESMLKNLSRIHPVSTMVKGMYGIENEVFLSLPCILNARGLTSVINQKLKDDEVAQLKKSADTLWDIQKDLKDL
# Description: Inhibition of human recombinant carboxy-terminal His-tagged LDHB by UV endpoint assay
row,SMILES,IC50 [µM]
1,N#Cc1ccccc1SC1=C(O)CC(c2ccccc2Cl)CC1=O (stereo not drawn),6.6
2,N#Cc1ccccc1SC1=C(O)CC(c2ccc(Cl)cc2)CC1=O (stereo not drawn),> 10
3,O=C1CC(c2c(F)cccc2Cl)CC(O)=C1Sc1ccccc1Cl (stereo not drawn),5.3
4,O=C1CC(c2c(Br)cccc2Br)CC(O)=C1Sc1ccccc1Cl (stereo not drawn),15
5,O=C1CC(c2c(F)cccc2F)CC(O)=C1Sc1ccccc1Cl (stereo not drawn),1.3
6,N#Cc1ccccc1SC1=C(O)CC(c2cccc(Cl)c2)CC1=O (stereo not drawn),> 10
7,Cc1cccc(C)c1C1CC(=O)C(Sc2ccccc2C#N)=C(O)C1 (stereo not drawn),7.8
8,Cc1cccc(C)c1C1CC(=O)C(Sc2ccccc2Cl)=C(O)C1 (stereo not drawn),1.9
9,N#Cc1ccccc1SC1=C(O)CC(c2c(Cl)cccc2C(F)(F)F)CC1=O (stereo not drawn),2.8
